The compounds below were run against T1, Glycogen phosphorylase, muscle form (Oryctolagus cuniculus, UniProt P00489).
T1 sequence (P00489 whole entry): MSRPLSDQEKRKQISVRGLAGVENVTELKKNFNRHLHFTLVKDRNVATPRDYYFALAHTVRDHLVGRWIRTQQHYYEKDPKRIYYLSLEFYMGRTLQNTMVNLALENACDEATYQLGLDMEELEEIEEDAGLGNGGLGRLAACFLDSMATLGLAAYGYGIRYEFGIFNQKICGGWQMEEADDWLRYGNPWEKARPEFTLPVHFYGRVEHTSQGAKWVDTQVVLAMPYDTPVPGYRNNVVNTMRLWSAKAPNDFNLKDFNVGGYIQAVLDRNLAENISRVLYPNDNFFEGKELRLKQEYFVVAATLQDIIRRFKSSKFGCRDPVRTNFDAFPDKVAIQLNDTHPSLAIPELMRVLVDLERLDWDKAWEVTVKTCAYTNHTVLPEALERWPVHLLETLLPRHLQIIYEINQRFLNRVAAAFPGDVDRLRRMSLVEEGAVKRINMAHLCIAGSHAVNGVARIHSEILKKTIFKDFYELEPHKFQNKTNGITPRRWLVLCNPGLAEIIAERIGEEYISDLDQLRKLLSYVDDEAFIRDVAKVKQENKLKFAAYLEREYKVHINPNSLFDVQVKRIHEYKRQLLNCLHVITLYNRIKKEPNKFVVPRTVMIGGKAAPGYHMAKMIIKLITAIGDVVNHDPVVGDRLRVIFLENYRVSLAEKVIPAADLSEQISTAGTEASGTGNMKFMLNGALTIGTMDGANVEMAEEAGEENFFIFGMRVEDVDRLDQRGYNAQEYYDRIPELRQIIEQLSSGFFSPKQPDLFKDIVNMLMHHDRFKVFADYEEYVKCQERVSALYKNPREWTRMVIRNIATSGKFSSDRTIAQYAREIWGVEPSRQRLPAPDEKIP
Description: Inhibition of rabbit skeletal muscle glycogen phosphorylase b

| IC50 [µM] | Compound |
| --- | --- |
| 25.7 | CC[C@H]1O[C@@H](NC(=S)N/N=C/c2ccc([N+](=O)[O-])cc2)[C@H](O)[C@@H](O)[C@@H]1O |
| 93.2 | CC[C@H]1O[C@@H](NC(=S)N/N=C/c2ccc(Br)cc2)[C@H](O)[C@@H](O)[C@@H]1O |
| 340 | CC[C@H]1O[C@@H](NC(=S)N/N=C/c2ccc(O)cc2)[C@H](O)[C@@H](O)[C@@H]1O |
| 406 | CC[C@H]1O[C@@H](NC(=S)N/N=C/c2ccc(OC)cc2)[C@H](O)[C@@H](O)[C@@H]1O |
| 192 | CC[C@H]1O[C@@H](NC(=S)N/N=C/c2ccc(C)cc2)[C@H](O)[C@@H](O)[C@@H]1O |
| 524 | CC[C@H]1O[C@@H](NC(=S)N/N=C/c2ccc(C(F)(F)F)cc2)[C@H](O)[C@@H](O)[C@@H]1O |
| 200 | CC[C@H]1O[C@@H](NC(=S)N/N=C/c2ccncc2)[C@H](O)[C@@H](O)[C@@H]1O |
| 23.2 | CC[C@H]1O[C@@H](NC(=S)N/N=C/c2cccc(Cl)c2)[C@H](O)[C@@H](O)[C@@H]1O |
| 180 | CC[C@H]1O[C@@H](NC(=S)N/N=C/c2cccc(O)c2)[C@H](O)[C@@H](O)[C@@H]1O |
| 484 | CC[C@H]1O[C@@H](NC(=S)N/N=C/c2ccccc2[N+](=O)[O-])[C@H](O)[C@@H](O)[C@@H]1O |
| 370 | CC[C@H]1O[C@@H](NC(=S)N/N=C/c2ccccc2Cl)[C@H](O)[C@@H](O)[C@@H]1O |
| 26.6 | CC[C@H]1O[C@@H](NC(=S)N/N=C/c2ccccc2O)[C@H](O)[C@@H](O)[C@@H]1O |

From ChEMBL document CHEMBL1275370, “The binding of β-d-glucopyranosyl-thiosemicarbazone derivatives to glycogen phosphorylase: A new class of inhibitors” (Bioorg Med Chem, 2010)
